From patent US20010046963A1, “Novel use of flavones” (priority 2000, published 2001)

Legend:
[1] = system: COX-2 mRNA; experiment: Semi-quantitative RT-PCR determination of COX-2 mRNA levels in HT-29 cells; assay type: cell-based; conditions: for COX-2/GAPDH [AUC]: HT-29 cells, 150 μM flavone, n = 4
Method: (§1) HT-29 cells (passage 106) were provided by ATCC and used between passage 150 and 200. Cells were cultured and passaged in RPMI-1640 supplemented with […] and 2 mM glutamine (all from GIBCO, Eggenstein, Germany). Antibiotics added were 100 U/ml penicillin and 100 μg/ml streptomycin (GIBCO). The cultures were maintained in a humidified atmosphere of 95% air and 5% CO2 at 37° C. Cells were passaged at preconfluent densities by the use of a solution containing 0.05% trypsin and 0.5 mM EDTA (GIBCO).
(§2) RNA from HT-29 cells was isolated at the times indicated in table 5 according to the method described by Chomczynski and Sacchi Anal. Biochem. 162 (1987) 156 with slight modifications. Reverse transcription was done with 5 μg of isolated RNA. First strand cDNA synthesis was accomplished with an oligo-(dT)15 primer (MBI Fermentas). Amplification of sequence specific fragments (Taq Polymerase was from Sigma) was performed with 30 cycles (95° C. denaturation for 1 min, 55° C. hybridization for 2 min, 72° C. extensions for 2 min; Personal Cycler, Biometra, Göttingen, Germany). RT-PCR products were separated on a 1% agrose gel and visualized by ethidium bromide. The amount of first strand used to amplify specific sequences was derived from the linear range of amplification. The amplified GAP-DH sequence was used as a constitutively expressed control. The amplivied products were photographed and the intensity of the bands was analyzed by the SigmaGel software. No products were obtained for all genes without reverse transcription […]. A λ-DNA/EcoRI+HindIII marker (MBI Fermentas) was used in all PCR experiments as a size control of the amplified products. Amplified cDNA sequences (primers were custom synthesized by Eurogentec, Seraing, Belgium) were GAP-DH: bp 558-1010; COX-2: bp 1366-1870, NFχB:bp 2832-3401.
(§3) That this effect on gene expression occurred selectively was shown by unaltered mRNA levels of the tumor suppressor p53.
(§4) Semi-quantitative determination of COX-2 and NFχB mRNA levels in HT-29 cells by use of RT-PCR (n=4).

[2] = system: NFχB mRNA; experiment: Semi-quantitative RT-PCR determination of NFχB mRNA levels in HT-29 cells; assay type: cell-based; conditions: for NFχB/GAPDH [AUC]: 150 μM flavone, n = 4
Method: as §1, §2, §3, §4

O=c1cc(-c2ccccc2)oc2ccccc12 [flavone, Flavone]
COX-2 transcript levels (in words) ([1]; HT-29 cells exposed to flavone for 48 h): diminished in its transcript levels drastically
COX-2/GAPDH [AUC] ([1]; incubation time 3 h): 0.69 AUC
COX-2/GAPDH [AUC] ([1]; incubation time 8 h): 0.35 AUC
NFχB/GAPDH [AUC] ([2]; incubation time 3 h): 1.1 AUC
NFχB/GAPDH [AUC] ([2]; incubation time 8 h): 1.7 AUC
mRNA of NFχB (in words) ([2]; flavone treatment): reduced dramatically
